“Also recorded” adds a separate entry of the source. Like-named read-outs stand apart in the source and are kept apart here.
How the values were obtained:
[1] = H2O2-dependent oxidation of 3,3′-diaminobenzidine (DAB) by lesions in AD brain tissue sections after chelator treatment; design: species or system human; settings: prior treatment of AD brain tissue sections
Excerpt: AD is associated with abnormalities of iron metabolism including increased levels of free iron as well as altered levels of iron transport and storage proteins. […] In addition to the NFT and Aβ deposits, redox active metals can be identified in the cytoplasm by the same DAB reaction. […] Although in situ histochemical techniques lack the sensitivity to detect copper, copper (as well as iron) could contribute to the redox activity. The relative effectiveness of copper- and iron-selective chelating agents was used to remove the lesion-dependent redox activity, which provided evidence for both copper- and iron-mediated redox activity in AD. […] Also, DAB oxidation was inhibited by chelation of metals with […]

[2] = system: Primary cortical neuron cultures; settings: Oltipraz 20 μM, Aβ1-42 25 μM, 5 days, MTT; p<0.05, ANOVA
Method: Primary cortical neuron cultures were established from E14 mice. […] Cultures were incubated for 5 days (37° C.) and then cell viability was determined using the MTT reduction assay. Cultures were also monitored for morphological changes by phase contrast microscopy. The MTT assay was performed by adding water soluble MTT to the culture medium at 0.5 mg/mL and incubating for 30 min. […] The culture medium was removed and the MTT solubilized in DMSO. Aliquots of solubilized MTT were read on a spectrophotometric plate reader at 570 nm.

[3] = system: Primary fibroblast cultures; experiment: H2O2 toxicity in primary fibroblast cultures, murine model for oxidative stress (MTT); type: cell-based, mice; settings: H2O2 150 μM, Oltipraz 25 μM
Method: (§1) Primary fibroblast cultures were prepared from normal mice (non Tg), mice transfected to produce human wild type presenilin 1 (WT Tg) or mice transfected to produce mutant human presenilin 1 (Mut Tg). All mice are derived from an identical genetic background. […] 50U/mL of catalase was used as a benchmark antioxidant against H2O2 toxicity. Cell viability was determined with the MTT reduction assay. […] Cell viability was determined with the MTT assay.

Mut Tg fibroblasts = settings: Oltipraz 10, 25 and 50 μM; fibroblasts treated with toxic levels of BSO
Method: as §1

[4] = system: neurons and clonal cell lines; experiment: Attenuation of amyloid-β toxicity; type: cell-based; settings: for attenuation of amyloid-β toxicity, dose dependence: pre-incubated with amyloid-β
Excerpt: In vitro, amyloid-β is toxic to neurons and clonal cell lines.

L. donovani = experiment: In vitro anti-protozoal activity, L. donovani; type: cell-based
T. cruzi = experiment: In vitro anti-protozoal activity, T. cruzi; type: cell-based
T.b.rhodesiense STIB900 = experiment: In vitro anti-protozoal activity, T.b.rhodesiense STIB900; type: cell-based
P. falciparum 3D7 = system: P. falciparum 3D7
Method: For in-vitro antimalarial testings, micro-titer plates were used. The concentration of drugs was prepared as pMol/well according to WHO standard procedures (WHO, 1990). The test compound was dissolved in 15% DMSO in sterile RPMI 1640.
The micro-titer plates were predosed with various concentration of the test compound. 50 μL of parasitised erythrocyte suspension in RPMI-1640 (0.2 ml erythrocyte +0.3 ml serum +4-5 ml RPMI-1640) were dispensed in microtiter wells containing various concentrations of drug. Triplicate readings were made for each concentration.
The testing was carried out according to the procedure of Desjardins et al. 1979. After 30 hr culture at 37 degrees C., the same microtiter plates from schizont inhibition assays with another triplicate wells were pulsed with ^3H-hypoxanthine for overnight. The cell suspensions were washed twice on millipore glass fiber filter with Millipore filter apparatus. The filter discs were counted for DPM by Beckman LS6000-scintillation counter. The activity of the drug was measured by plotting DPM against concentration of drug.

[5] = sections treated 2 hrs or overnight
[6] = doses of oltipraz effective at chelating in situ or abolishing amyloid-β toxicity; preliminary data

Compound: O=C(O)CN(CCN(CC(=O)O)CC(=O)O)CCN(CC(=O)O)CC(=O)O [DTPA, detapac]
- inhibition of lesion-associated DAB oxidation ([1]; 1 mM chelator): inhibited more than half
- inhibition of lesion-associated DAB oxidation ([1]; 10 mM chelator): completely abolished; also recorded: nearly all
- inhibition of lesion-associated DAB oxidation ([1]; 100 mM chelator): abolished all

Compound: Cc1c(-c2cnccn2)ssc1=S [Oltipraz, oltipraz]
- cell viability compared to Aβ1-42 alone [2]: small increase in cell viability
- protective effect relative to that achieved with 50U/mL catalase [3]: about two thirds
- protective effect against H2O2 toxicity ([3]; fibroblasts from Mut Tg mice (mutant human presenilin 1)): not in fibroblasts from Mut Tg mice
- protective effect against H2O2 toxicity ([3]; fibroblasts from WT Tg mice (human wild type presenilin 1)): significant protective effect
- protective effect against H2O2 toxicity ([3]; fibroblasts from non Tg mice): significant protective effect
- cell viability restored (Mut Tg fibroblasts): 100%
- attenuation of the neurotoxicity of amyloid-β [4]: significantly attenuate
- attenuation of amyloid-β toxicity, dose dependence [4]: reduced in a dose-dependent manner similar to that of deferoxamine
- attenuation of amyloid-β toxicity, dose dependence ([4]; listed as oltipraz): attenuate its toxicity in a dose-dependent manner similar to that of deferoxamine
- cell survival in brain tissue sections ([4]; shown in a figure): increase cell survival
- % Inhibition (L. donovani; concentration 10): 0%
- % Inhibition (L. donovani; concentration 30): 3.2%
- % Inhibition (T. cruzi; concentration 1): 4.3%
- % Inhibition (T. cruzi; concentration 3): 38.6%
- % Inhibition (T. cruzi; concentration 10): 54.6%
- % Inhibition (T. cruzi; concentration 30): 99.7%
- ED50 column, second value in parentheses (not explained) (T. cruzi; line below the ED50): (23.8) μg/ml
- % Inhibition (T.b.rhodesiense STIB900; concentration 10): 0%
- % Inhibition (T.b.rhodesiense STIB900; concentration 30): 42.5%
- % Inhibition (P. falciparum 3D7; concentration 1): 0%
- % Inhibition (P. falciparum 3D7; concentration 3): 4.4%
- % Inhibition (P. falciparum 3D7; concentration 10): 96.5%
- % Inhibition (P. falciparum 3D7; concentration 30): 100%
- iron removal compared with DFX [5]: not as effective as DFX
- neurotoxicity in vitro [6]: little/no neurotoxicity
